This passage reports Fold activation results from ChEMBL document CHEMBL1140250, “6-Aryl-4-methylsulfanyl-2H-pyran-2-one-3-carbonitriles as PPAR-gamma activators” (Bioorg Med Chem Lett, 2005).

Format in all cases: functional
For test [1], the target named is T1, Peroxisome proliferator-activated receptor gamma (Homo sapiens) (UniProt P37231).
T1 sequence (whole entry): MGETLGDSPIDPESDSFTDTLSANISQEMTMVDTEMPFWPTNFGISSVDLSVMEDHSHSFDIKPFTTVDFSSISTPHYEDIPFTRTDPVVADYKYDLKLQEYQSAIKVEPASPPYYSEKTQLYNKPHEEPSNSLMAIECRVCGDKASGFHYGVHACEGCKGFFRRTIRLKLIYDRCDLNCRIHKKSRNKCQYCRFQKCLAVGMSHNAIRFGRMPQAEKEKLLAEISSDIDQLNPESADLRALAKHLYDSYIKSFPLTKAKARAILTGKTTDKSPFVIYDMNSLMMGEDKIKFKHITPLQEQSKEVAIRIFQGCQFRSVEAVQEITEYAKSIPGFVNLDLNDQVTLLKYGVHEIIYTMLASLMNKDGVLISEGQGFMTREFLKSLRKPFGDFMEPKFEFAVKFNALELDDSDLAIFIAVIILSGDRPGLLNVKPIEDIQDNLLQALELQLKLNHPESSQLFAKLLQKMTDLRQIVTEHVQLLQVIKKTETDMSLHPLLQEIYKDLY
Put plainly: In vitro agonist activity against human PPAR-gamma in transactivation assay at 10 nM.

For test [2], the target named is T1, Peroxisome proliferator-activated receptor gamma (Homo sapiens). In words: In vitro agonist activity against human PPAR-gamma in transactivation assay at 100 nM.
For test [3] the target is unchanged. Put plainly: In vitro agonist activity against human PPAR-gamma receptor in transactivation assay at 1000 nM.

Regarding `COC(=O)c1c(SC)cc(-c2ccc(OCCN3CCCCC3)cc2)oc1=O`, the Fold activation in test [1] was found to be 3; in test [2], 3; in test [3] it was 17.
As to `C[S+]([O-])CCOc1ccc(-c2cc([S+](C)[O-])c(C#N)c(=O)o2)cc1` (centres undefined), the Fold activation in test [1] turned out to be 9; in test [2], 14; in test [3] it was 27.
For the compound `CSc1cc(-c2ccc(OCCSc3ccccc3)cc2)oc(=O)c1C#N`, the results for the Fold activation in test [1], in test [2] and in test [3] were 3, 5 and 14, respectively.
The matching figures for `CSc1cc(-c2ccc(OCN3CCOCC3)cc2)oc(=O)c1C#N`: 3, 4 and 5.
For `CSc1cc(-c2ccc(OCCN3CCCCC3)cc2)oc(=O)c1C#N` the same measures were 3, 2 and 16.
For the compound `CCSCCOc1ccc(-c2cc(SCC)c(C#N)c(=O)o2)cc1`, the Fold activation in test [1] came out at 7; in test [2], 11; in test [3], 30.
Turning to `CSc1cc(-c2ccc(OCCc3nccc4c3CCCC4)cc2)oc(=O)c1C#N`, the results for the Fold activation in test [1], in test [2] and in test [3] were 4, 5 and 19, respectively.
The matching figures for `CSCCOc1ccc(-c2cc(SC)c(C#N)c(=O)o2)cc1`: 12, 22 and 60.
In the case of `CN(CCOc1ccc(CC2SC(=O)NC2=O)cc1)c1ccccn1` (centres undefined), the results for the Fold activation in test [1], in test [2] and in test [3] were 9, 28 and 176, respectively.
Take `COC(=O)c1c(SC)cc(-c2ccc(OCCSC)cc2)oc1=O`: the Fold activation in test [1] was 9; in test [2], 13; in test [3], 44.
`CSc1cc(-c2ccc(OCCN(Cc3ccccc3)SC)cc2)oc(=O)c1C#N`: the Fold activation turned out to be 4 in test [1], 6 in test [2] and 7 in test [3].
Consider `CSc1cc(-c2ccc(OCCN(C)C)cc2)oc(=O)c1C#N`, for which the Fold activation was determined as 4 in test [1], 6 in test [2] and 7 in test [3].
The matching figures for `CSc1cc(-c2ccc(OCCN(C)Cc3ccccc3)cc2)oc(=O)c1C#N`: 5, 4 and 7.
